Measurements reported in US20050234046A1 (Kalypsys, Inc., priority 2004, published 2005).

Tests used:
Test in all cases: Transient transfection (transactivation) assay in CV-1 cells, GAL4-PPAR chimera, luciferase reporter
Type in all cases: cell-based
PPAR delta = target: T1, PPAR delta (Homo sapiens, UniProt Q03181)
T1 construct: expressed in transfected cells; host or cells: CV-1 cells
T1 sequence (Q03181 211-439 limits assumed): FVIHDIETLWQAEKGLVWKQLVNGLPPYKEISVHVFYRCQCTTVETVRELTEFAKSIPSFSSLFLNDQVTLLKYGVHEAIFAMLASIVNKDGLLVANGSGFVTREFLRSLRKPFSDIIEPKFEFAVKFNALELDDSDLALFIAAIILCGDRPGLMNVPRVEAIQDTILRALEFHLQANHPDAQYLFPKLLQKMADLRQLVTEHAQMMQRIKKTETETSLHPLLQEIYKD

PPAR gamma = target: T2, PPAR gamma (Homo sapiens, UniProt P37231)
T2 construct: expressed in transfected cells; host or cells: CV-1 cells
T2 sequence (P37231 238-503 limits assumed): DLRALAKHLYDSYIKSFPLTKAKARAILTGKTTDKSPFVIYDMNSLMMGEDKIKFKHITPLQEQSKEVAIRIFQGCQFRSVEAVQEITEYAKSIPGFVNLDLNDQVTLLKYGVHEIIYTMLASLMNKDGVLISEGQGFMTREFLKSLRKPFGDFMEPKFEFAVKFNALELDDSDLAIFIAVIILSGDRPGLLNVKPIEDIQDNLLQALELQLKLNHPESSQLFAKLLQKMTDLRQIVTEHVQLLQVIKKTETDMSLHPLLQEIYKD
Source text: Compounds may be screened for functional potency in transient transfection assays in CV-1 cells or other cell types for their ability to activate the PPAR subtypes (transactivation assay). A previously established chimeric receptor system was utilized to allow comparison of the relative transcriptional activity of the receptor subtypes on the same synthetic response element and to prevent endogenous receptor activation from complicating the interpretation of results. […] The ligand binding domains for murine and human PPAR-alpha, PPAR-gamma, and PPAR-delta are each fused to the yeast transcription factor GAL4 DNA binding domain. CV-1 cells were transiently transfected with expression vectors for the respective PPAR chimera along with a reporter construct containing four or five copies of the GAL4 DNA binding site driving expression of luciferase. After 8-16 h, the cells are replated into multi-well assay plates and the media is exchanged to phenol-red free DME medium supplemented with 5% delipidated calf serum. 4 hours after replating, cells were treated with either compounds or 1% DMSO for 20-24 hours. Luciferase activity was then assayed with Britelite (Perkin Elmer) following the manufacturer's protocol and measured with either the Perkin Elmer Viewlux or Molecular Devices Acquest Xsee, for example, Kliewer, S. A., et. al. Cell 1995, 83, 813-819). Rosiglitazone is used as a positive control in the hPPAR-γ assay. Wy-14643 and GW7647 is used as a positive control in the hPPAR-α assay. GW501516 is used as the positive control in the hPPAR-δ assay.

PPAR alpha = target: T3, PPAR alpha (Homo sapiens, UniProt Q07869)
T3 construct: expressed in transfected cells; host or cells: CV-1 cells
T3 sequence (Q07869 239-466 limits assumed): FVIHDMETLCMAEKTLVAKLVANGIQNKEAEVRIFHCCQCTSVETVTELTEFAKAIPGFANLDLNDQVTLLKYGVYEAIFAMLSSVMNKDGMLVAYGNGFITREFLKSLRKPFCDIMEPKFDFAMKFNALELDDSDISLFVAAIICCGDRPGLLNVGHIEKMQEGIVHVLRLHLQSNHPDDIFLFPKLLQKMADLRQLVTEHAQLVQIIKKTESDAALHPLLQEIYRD
In short: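 GAL4 DNA-binding domain fused to PPAR ligand binding domain, co-transfected into CV-1 cells with a luciferase reporter carrying four or five GAL4 sites. Replated cells in phenol-red free DME with 5% delipidated calf serum were treated with compound or 1% DMSO for 20-24 hours; luciferase read for EC50 and efficacy.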

SMILES | EC50 (PPAR delta) | EC50 (PPAR gamma) | EC50 (PPAR alpha)
Cc1cc(S(=O)(=O)N2[C@H](C)CN(c3ccc(C(F)(F)F)cn3)C[C@@H]2C)cc(CC(=O)O)c1Br [Example 197, {2-Bromo-5-[2,6-dimethyl-4-(5-trifluoromethyl-pyridin-2-yl)-piperazine-1-sulfonyl]-3-methyl-phenyl}-acetic acid] | < 5 µM | 5 to 100 µM | > 100 µM
Cc1cc(CC(=O)O)cc(S(=O)(=O)N2[C@@H](C)CN(c3ccc(C(F)(F)F)cn3)C[C@@H]2C)c1 [Example 195, {3-[2,6(S,S)-Dimethyl-4-(5-trifluoromethyl-pyridin-2-yl)-piperazine-1-sulfonyl]-5-methyl-phenyl}-acetic acid] | < 5 µM | 5 to 100 µM | 5 to 100 µM
COc1ccc(CC(=O)O)cc1S(=O)(=O)N1CCN(c2ccc(C(F)(F)F)cc2)CC1 [Example 79, {4-Methoxy-3-[4-(4-trifluoromethyl-phenyl)-piperazine-1-sulfonyl]-phenyl}-acetic acid] | < 5 µM | 5 to 100 µM | > 100 µM
Cc1ccc(S(=O)(=O)N2CCN(c3ccc(C(F)(F)F)cc3Br)CC2)cc1CC(=O)O [Example 97, {5-[4-(2-Bromo-4-trifluoromethyl-phenyl)-piperazine-1-sulfonyl]-2-methyl-phenyl-}acetic acid] | < 5 µM | > 100 µM | < 5 µM
O=C(O)Cc1cc(S(=O)(=O)N2CCN(c3ccc(C(F)(F)F)cn3)CC2)ccc1O [Example 207, {5-[4-(5-trifluoromethyl-pyridin-2-yl)-piperazine-1-sulfonyl]-2-hydroxy-phenyl}-acetic acid] | < 5 µM | 5 to 100 µM | 5 to 100 µM
CCOc1ccccc1N1CCN(S(=O)(=O)c2cccc(CC(=O)O)c2)CC1 [Example 142, {3-[4-(2-Ethoxy-phenyl)-piperazine-1-sulfonyl]-phenyl}-acetic acid] | > 100 µM | > 100 µM | > 100 µM
Cc1ccc(CC(=O)O)cc1S(=O)(=O)N1CCN(c2ccc(C#N)cc2)CC1 [Example 153, {3-[4-(4-Cyano-phenyl)-piperazine-1-sulfonyl]-4-methyl-phenyl}-acetic acid] | > 100 µM | > 100 µM | > 100 µM
C[C@@H]1CN(c2ccc(C(F)(F)F)c(Cl)c2)C[C@H](C)N1S(=O)(=O)c1cccc(CC(=O)O)c1 [Example 114, {3-[4-(3-Chloro-4-trifluoromethyl-phenyl)-2,6-dimethyl-piperazine-1-sulfonyl]-phenyl}-acetic acid] | < 5 µM | > 100 µM | 5 to 100 µM
Cc1ccc(S(=O)(=O)N2[C@H](C)CN(c3ccc(C(F)(F)F)cn3)C[C@@H]2C)cc1CC(=O)O [Example 20, {5-[2,6-Dimethyl-4-(5-trifluoromethyl-pyridin-2-yl)-piperazine-1-sulfonyl]-2-methyl-phenyl}-acetic acid] | < 5 µM | > 100 µM | > 100 µM
COc1ccc(CC(=O)O)cc1S(=O)(=O)N1CCN(c2ccc(C(F)(F)F)cn2)CC1C (stereo not drawn) [Example 81, {4-Methoxy-3-[2-methyl-4-(5-trifluoromethyl-pyridin-2-yl)-piperazine-1-sulfonyl]-phenyl}-acetic acid] | 5 to 100 µM | 5 to 100 µM | > 100 µM
Cc1ccc(S(=O)(=O)N2CCC(c3nccs3)CC2)cc1CC(=O)O [Example 43, [2-Methyl-5-(4-thiazol-2-yl-piperidine-1-sulfonyl)-phenyl]-acetic acid] | > 100 µM | > 100 µM | > 100 µM
Cc1ccc(S(=O)(=O)N2CCN(c3ncc(Br)cn3)CC2)cc1CC(=O)O [Example 58, {5-[4-(5-Bromo-pyrimidin-2-yl)-piperazine-1-sulfonyl]-2-methyl-phenyl}-acetic acid] | < 5 µM | < 5 µM | 5 to 100 µM
COc1ccc(N2CCN(S(=O)(=O)c3cccc(CC(=O)O)c3)CC2)cc1OC [Example 127, {3-[4-(3,4-Dimethoxy-phenyl)-piperazine-1-sulfonyl]-phenyl}-acetic acid] | > 100 µM | > 100 µM | > 100 µM
C[C@@H]1CN(c2ccc(OC(F)(F)F)cc2)C[C@H](C)N1S(=O)(=O)c1cccc(CC(=O)O)c1 [Example 109, {3-[2,6-Dimethyl-4-(4-trifluoromethoxy-phenyl)-piperazine-1-sulfonyl]-phenyl}-acetic acid] | < 5 µM | > 100 µM | 5 to 100 µM
COc1ccc(N2CCN(S(=O)(=O)c3cc(CC(=O)O)ccc3C)CC2)cc1 [Example 155, {3-[4-(4-Methoxy-phenyl)-piperazine-1-sulfonyl]-4-methyl-phenyl}-acetic acid] | > 100 µM | > 100 µM | > 100 µM
CC(C)(C)c1ccc(N2CCN(S(=O)(=O)c3cccc(CC(=O)O)c3)CC2)cc1 [Example 126, {3-[4-(4-tert-butyl-phenyl)-piperazine-1-sulfonyl]-phenyl}-acetic acid] | 5 to 100 µM | < 5 µM | 5 to 100 µM
Cc1ccc(S(=O)(=O)N2CCN(c3ccc(Br)cn3)CC2)cc1CC(=O)O [Example 61, {5-[4-(5-Bromo-pyridin-2-yl)-piperazine-1-sulfonyl]-2-methyl-phenyl}-acetic acid] | < 5 µM | < 5 µM | > 100 µM
Cc1ccc(S(=O)(=O)N2CCN(c3ncc(Cl)cn3)CC2)cc1CC(=O)O [Example 57, {5-[4-(5-Chloro-pyrimidin-2-yl)-piperazine-1-sulfonyl]-2-methyl-phenyl}-acetic acid] | < 5 µM | < 5 µM | 5 to 100 µM
Cc1cccc(N2CCN(S(=O)(=O)c3cc(C)cc(CC(=O)O)c3)CC2C)c1 (stereo not drawn) [Example 168, [3-Methyl-5-(3-methyl-4-m-tolyl-piperazine-1-sulfonyl)-phenyl]-acetic acid] | 5 to 100 µM | 5 to 100 µM | > 100 µM
Cc1ccc(S(=O)(=O)N2CCN(c3cccc(C(F)(F)F)n3)CC2)cc1CC(=O)O [Example 36, {2-Methyl-5-[4-(6-trifluoromethyl-pyridin-2-yl)-piperazine-1-sulfonyl]-phenyl}-acetic acid] | < 5 µM | < 5 µM | 5 to 100 µM
